These results are taken from patent publication US20240199649A1 (Biosplice Therapeutics, Inc., priority 2022, published 2024).

The target of this test is recombinant DYRK1A kinase (Homo sapiens (Human), UniProt Q13627). Description: DYRK1A kinase assay (Ser/Thr 18 peptide Z-lyte FRET assay). Type of test: biochemical. As to conditions: DYRK1A 0.25 μg/mL, ATP 15 μM, Ser/Thr peptide 18 4 μM; one hour at room temperature; 11-point dose-response, duplicate. The essentials: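 Z-lyte FRET assay on Ser/Thr 18 peptide, kinase activity read as coumarin/fluorescein emission ratio; compounds incubated 1 h at room temperature, then development reagent 1 h, in duplicate. Phosphorylated and unphosphorylated peptide served as controls; IC50 by non-linear regression of dose-response curves.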
Turning to `Cc1nc2ccc(-c3ccn4nc(N[C@H]5CCN(C6COC6)C[C@H]5F)nc(N)c34)nc2n1CCF` [Compound 997, N^2-((3R,4S)-3-Fluoro-1-(oxetan-3-yl)piperidin-4-yl)-5-(3-(2-fluoroethyl)-2-methyl-3H-imidazo[4,5-b]pyridn-5-yl)pyrrolo[2,1-f][1,2,4]triazine-2,4-diamine], the IC50 was found to be 1.7 nM. Then `CC(=O)N1CC[C@@H](Nc2nc(N)c3c(-c4ccc5nc(C)n(CCF)c5n4)ccn3n2)C(F)(F)C1` [Compound 998, (R)-1-(4-((4-Amino-5-(3-(2-fluoroethyl)-2-methyl-3H-imidazo[4,5-b]pyridin-5-yl)pyrrolo[2,1-f][1,2,4]triazin-2-yl)amino)-3,3-difluoropiperidin-1-yl)ethan-1-one], with 9.2 nM; and `Cc1nc2ccc(-c3ccn4nc(N[C@@H]5CCN(C6COC6)CC5(F)F)nc(N)c34)nc2n1CCF` [Compound 999, (R)—N^2-(3,3-Difluoro-1-(oxetan-3-yl)piperidin-4-yl)-5-(3-(2-fluoroethyl)-2-methyl-3H-imidazo[4,5-b]pyridin-5-yl)pyrrolo[2,1-f][1,2,4]triazine-2,4-diamine], with 1.8 nM; and `Nc1nc(N[C@H]2CC[C@@H](OC(F)F)CC2)nn2ccc(-c3ccc4nnn(CC(F)F)c4n3)c12` [Compound 1000, 5-(3-(2,2-Difluoroethyl)-3H-[1,2,3]triazolo[4,5-b]pyridin-5-yl)-N^2-(cis-4-(difluoromethoxy)cyclohexyl)pyrrolo[2,1-f][1,2,4]triazine-2,4-diamine], with 5.1 nM. With `CNc1nc(NC2CCC(F)(F)CC2)nn2ccc(-c3ccc4ncn(CCF)c4n3)c12` [Compound 1001, N^2-(4,4-Difluorocyclohexyl)-5-(3-(2-fluoroethyl)-3H-imidazo[4,5-b]pyridin-5-yl)-N^4-methylpyrrolo[2,1-f][1,2,4]triazine-2,4-diamine], the IC50 came to 2.2 nM.

Consider `CNc1nc(N[C@H]2CCN(C(C)=O)C[C@H]2F)nn2ccc(-c3ccc4ncn(CCF)c4n3)c12` [Compound 1002, 1-((3R,4S)-3-Fluoro-4-((5-(3-(2-fluoroethyl)-3H-imidazo[4,5-b]pyridin-5-yl)-4-(methylamino)pyrrolo[2,1-f][1,2,4]triazin-2-yl)amino)piperidin-1-yl)ethan-1-one], for which the IC50 was found to be 1.1 nM. On to `CNc1nc(N[C@H]2CCN(C3COC3)C[C@H]2F)nn2ccc(-c3ccc4ncn(CCF)c4n3)c12` [Compound 1003, N^2-((3R,4S)-3-Fluoro-1-(oxetan-3-yl)piperidin-4-yl)-5-(3-(2-fluoroethyl)-3H-imidazo[4,5-b]pyridin-5-yl)-N4-methylpyrrolo[2,1-f][1,2,4]triazine-2,4-diamine], for which the IC50 came to 1.1 nM. The figure for `CNc1nc(N[C@@H]2CCN(C)CC2(F)F)nn2ccc(-c3ccc4ncn(CCF)c4n3)c12` [Compound 1004, (R)—N^2-(3,3-Difluoro-1-methylpiperidin-4-yl)-5-(3-(2-fluoroethyl)-3H-imidazo[4,5-b]pyridin-5-yl)-N^4-methylpyrrolo[2,1-f][1,2,4]triazine-2,4-diamine] is 1.1 nM. As for `CNc1nc(N[C@@H]2CCN(C3COC3)CC2(F)F)nn2ccc(-c3ccc4ncn(CCF)c4n3)c12` [Compound 1005, (R)—N^2-(3,3-Difluoro-1-(oxetan-3-yl)piperidin-4-yl)-5-(3-(2-fluoroethyl)-3H-imidazo[4,5-b]pyridin-5-yl)-N^4-methylpyrrolo[2,1-f][1,2,4]triazine-2,4-diamine], the IC50 was 0.9 nM. Take `CNc1nc(NC2CCC(F)(F)CC2)nn2ccc(-c3ccc4ncn(CC(F)F)c4n3)c12` [Compound 1007, N^2-(4,4-Difluorocyclohexyl)-5-(3-(2,2-difluoroethyl)-3H-imidazo[4,5-b]pyridin-5-yl)-N^4-methylpyrrolo[2,1-f][1,2,4]triazine-2,4-diamine]: the IC50 worked out at 4.1 nM.

As for `CNc1nc(N[C@H]2CC[C@@](C)(O)CC2)nn2ccc(-c3ccc4ncn(CC(F)F)c4n3)c12` [Compound 1008, (1r,4r)-4-((5-(3-(2,2-Difluoroethyl)-3H-imidazo[4,5-b]pyridin-5-yl)-4-(methylamino)pyrrolo[2,1-f][1,2,4]triazin-2-yl)amino)-1-methylcyclohexan-1-ol], the IC50 was 0.4 nM. Then `CNc1nc(N[C@H]2CCN(C3COC3)C[C@H]2F)nn2ccc(-c3ccc4ncn(CC(F)F)c4n3)c12` [Compound 1009, 5-(3-(2,2-Difluoroethyl)-3H-imidazo[4,5-b]pyridin-5-yl)-N^2-((3R,4S)-3-fluoro-1-(oxetan-3-yl)piperidin-4-yl)-N4-methylpyrrolo[2,1-f][1,2,4]triazine-2,4-diamine], with 2 nM. With `CNc1nc(N[C@@H]2CCN(C(C)=O)CC2(F)F)nn2ccc(-c3ccc4ncn(CC(F)F)c4n3)c12` [Compound 1010, (R)-1-(4-((5-(3-(2,2-Difluoroethyl)-3H-imidazo[4,5-b]pyridin-5-yl)-4-(methylamino)pyrrolo[2,1-f][1,2,4]triazin-2-yl)amino)-3,3-difluoropiperidin-1-yl)ethan-1-one], the IC50 stood at 0.5 nM. The figure for `CNc1nc(N[C@@H]2CCN(C)CC2(F)F)nn2ccc(-c3ccc4ncn(CC(F)F)c4n3)c12` [Compound 1011, (R)—N^2-(3,3-Difluoro-1-methylpiperidin-4-yl)-5-(3-(2,2-difluoroethyl)-3H-imidazo[4,5-b]pyridin-5-yl)-N^4-methylpyrrolo[2,1-f][1,2,4]triazine-2,4-diamine] is 1.4 nM; for `CNc1nc(N[C@H]2CCN(C(C)=O)C[C@H]2F)nn2ccc(-c3ccc4ncn(CC(F)F)c4n3)c12` [Compound 1012, 1-((3R,4S)-4-((5-(3-(2,2-Difluoroethyl)-3H-imidazo[4,5-b]pyridin-5-yl)-4-(methylamino)pyrrolo[2,1-f][1,2,4]triazin-2-yl)amino)-3-fluoropiperidin-1-yl)ethan-1-one] it is 0.5 nM; for `CNc1nc(N[C@@H]2CCN(C3COC3)CC2(F)F)nn2ccc(-c3ccc4ncn(CC(F)F)c4n3)c12` [Compound 1013, (R)—N^2-(3,3-Difluoro-1-(oxetan-3-yl)piperidin-4-yl)-5-(3-(2,2-difluoroethyl)-3H-imidazo[4,5-b]pyridin-5-yl)-N4-methylpyrrolo[2,1-f][1,2,4]triazine-2,4-diamine] it is 0.9 nM. `CNc1nc(NC2CCC(F)(F)CC2)nn2ccc(-c3ccc4ncn(CC(F)(F)F)c4n3)c12` [Compound 1014, N^2-(4,4-Difluorocyclohexyl)-N^4-methyl-5-(3-(2,2,2-trifluoroethyl)-3H-imidazo[4,5-b]pyridin-5-yl)pyrrolo[2,1-f][1,2,4]triazine-2,4-diamine]: the IC50 stood at 10.1 nM.

Take `CNc1nc(N[C@H]2CCN(C(C)=O)C[C@H]2F)nn2ccc(-c3ccc4ncn(CC(F)(F)F)c4n3)c12` [Compound 1015, 1-((3R,4S)-3-Fluoro-4-((4-(methylamino)-5-(3-(2,2,2-trifluoroethyl)-3H-imidazo[4,5-b]pyridin-5-yl)pyrrolo[2,1-f][1,2,4]triazin-2-yl)amino)piperidin-1-yl)ethan-1-one]: the IC50 was 1.4 nM. The figure for `CNc1nc(N[C@H]2CCN(C3COC3)C[C@H]2F)nn2ccc(-c3ccc4ncn(CC(F)(F)F)c4n3)c12` [Compound 1016, N^2-((3R,4S)-3-Fluoro-1-(oxetan-3-yl)piperidin-4-yl)-N^4-methyl-5-(3-(2,2,2-trifluoroethyl)-3H-imidazo[4,5-b]pyridin-5-yl)pyrrolo[2,1-f][1,2,4]triazine-2,4-diamine] is 1.5 nM.

The term IC50 denotes the concentration that gives 50% inhibition.
